Where “and” joins values, the source holds several entries; their conditions need not be identical. Identical values can stand only once. Counter-ions that a name gives are not always drawn. Like-named read-outs stand apart in the source and are kept apart here.
Key:
Motoraktivität = experiment: Actimetry (motor activity, photocell actimeter); format: in vivo, Maus
Source text: Die Motoraktivität wird mittels Photozellenaktimetern bestimmt (Boissier und Simon, Arch. Int. Pharmacodyn. 1965, 158, 212-221).
Die Mäuse (10 oder ein Vielfaches von 10 pro Gruppe) werden unmittelbar nach i.p. Verabreichung der zu untersuchenden Verbindungen in das Aktimeter eingesetzt. Die Motoraktivität wird danach bis zur 60. Minute gemessen. De Zähler werden nach 30 Minuten abgelesen und dann auf 0 zurückgestellt und im Verlauf von 30 Minuten alle 10 Minuten abgelesen.
Die Beweglichkeit der mit den verschiedenen Verbindungen behandelten Tiere wird mit derjenigen einer destilliertes Wasser erhaltenden Kontrollgruppe verglichen.
Die eine psychostimulierende Aktivität besitzenden Produkte verursachen eine Zunahme der Beweglichkeit.

Maus [1] = experiment: Tail suspension test; format: in vivo; details: for minimal effective dose: ip; for % Antagonismus / Dauer der Unbeweglichkeit: mouse
Source text: Schwanzaufhängungstest an der Maus wie von Stéru u.a. beschrieben (Psychopharmacology 85, 367-370, 1985).
Die Substanzen werden intraperitoneal 30 Minuten vor dem Test verabreicht und die Tiese isoliert (10 Mäuse pro Dosis).
Man bewertet die Dauer der Unbeweglichkeit, ausgedrückt in Sekunden über die 6 Minuten des Tests. Man untersucht auf eine Verkürzung dieser Unbeweglichkeitszeit.

Maus [2] = experiment: Behavioural despair test (Porsolt forced swimming); format: in vivo; details: mouse; for Dauer der Unbeweglichkeit: 30 min before test
Source text: Test auf verzweifeltes Verhalten, wie von Porsolt u.a. (Arch. Int, Pharmacodyn. Ther. 229, 327 - 336, 1977) beschrieben.
Die Verbindungen werden intraperetoneal 30 Minuten vor dem Test verabreicht, und die Tiere werden vor dem erzwungenen Schwimmtest isoliert gehalten. Man bewertet die Dauer der Unbeweglichkeitsperioden in Sekunden ausgedrückt, die von der 2. bis zur 6. Minute nach dem Einsetzen des Tieres in Wasser gezählt werden.

L-5-Hydroxytryptophan = experiment: Potentiation of L-5-hydroxytryptophan effects (head twitches, tremor); format: in vivo, Maus; details: mouse
Procedure: L-5 HTP induziert an der Maus ruckartige Bewegungen des Kopfes (Kopfzuckungen). Die zu untersuchenden Substanzen werden den Tieren (10 Mäuse pro Dosis) intraperitoneal 30 Minuten vor dem L-5 HTP (4 mg/kg intraperitoneal) verabreicht. Die ruckartigen Kopfbewegungen und der Tremor werden 1 Minutre lang alle 10 Minuten im Verlauf einer Stunde bewertet. Desimipramin und Indalpin sind die Kontrol-(Vergleichs-)verbindungen. Ein antidepressiver Effekt zeigt sich durch eine Zunahme der ruckartigen Kopfbewegungen und des Tremors.

Maus [3] = experiment: Hot plate test (licking and jumping), analgesia; format: in vivo
Procedure: Heizplattentest: Lecken und Springen, wie von Jacob und Blozovski beschrieben (Arch. Int. Pharmacodyn. 133, 296-209, 1961).
Die in Sekunden ausgedrückten Reaktionszeiten auf einer Heizplatte werden unter Berücksichtigung des Leckens der Vorderpfoten und Springen des Tieres als Kriterien bewertet. Die beiden Reaktionen werden am selben, anfänglich untrainierten Tier mit einer maximalen Ansprechzeit (Obergrenze) von 240 Sekunden beobachtet. Die Temperatur der Platte wird auf 56,6°C gehalten.
Morphin als positive Kontrolle wird subkutan und die übrigen Substanzen (mg/kg) werden intraperitoneal 30 Minuten vor dem Test verabreicht. Positives Ansprechen zeigt sich in einer Zunahme der Reaktionszeit.
Wird der schadensverhütenden Wirkung eine Substanz durch Naloxon entegengewirkt, so kann man schließen, daß die Substanz tatsächlich eine analgetische Wirkung besitzt.

Toxizität des Yohimbins = experiment: Potentiation of yohimbine toxicity; format: in vivo, Maus
Procedure: Wirkung auf die Toxizität des Yohimbins
Zur Zeit 0 erhalten die Mäuse entweder destilliertes Wasser oder verschiedene zu untersuchende Verbindungen i.p. 30 Minuten danach verabreicht man ihnen subkutan eine infratoxische Dosis von 25 mg/kg Yohimbinchlorhydrat.
Die Mortalität wird jede Stunde über einen Zeitraum von 4 Stunden verfolgt und dann nach 24 Stunden notiert.
Die eine antidepressive Aktivität besitzenden Produkte verursachen eine Potenzierung der Toxizität des Yohimbins.

[4] = test system: durch Oxotremorin induzierten Hypothermie; experiment: Antioxotremorine activity (oxotremorine-induced hypothermia); format: in vivo, Maus; details: Mus musculus, ip, read-out: Erste wirksame Dosis Oxotremorin
Procedure: Nach Ausgleich der Rektaltemperaturen erhalten Mäuse (6 pro Gruppe) entweder destillietes Wasser oder die verschiedenen zu untersuchenden Verbindungen i.p.
30 Minuten danach verabreicht man intraperitoneal Oxotremorin in einer Dosis von 0,5 mg/kg.
Die Mäuse werden dan beobachtet: Tremor wird je nach der Intensität von 0 bis 3 bewertet, und die Akinesie wird alle 10 Minuten über einen Zeitraum von 30 Minuten auf Vorliegen oder Fehlen bestimmt.
Außerdem beobachtet man 2 Stunden lang das Erscheinen peripherer Symptome (Tränen, Darmentleerung). Die Rektaltemperatur wird alle 30 Minuten über eine Zeitraum von 2 Stunden nach der Verabreichung des Oxotremorins gemessen.
Die eine antidepressive Aktivität besitzenden Produkte wirken der durch Oxotremorin induzierten Hypothermie entgegen.
Für jede Dosis der Verbindung berechnet man die prozentuale Hemmung der Hypothermie.

[5] = test system: durch Reserpin induzierten Hypothermie; experiment: Antireserpine activity (reserpine-induced hypothermia); format: in vivo, Maus; details: ip
Procedure: Zur Zeit 0 erhalten die Mäuse intraperitoneal Reserpin (2,5 mg/kg).
4 Stunden danach, wenn die Hypothermie genügend stark erscheint (30 bis 33°C), verabreicht man die verschiedenen zu untersuchenden Verbindungen i.p. oder p.o. Alle 30 Minuten über einen Zeitraum von 2 Stunden mißt man die Rektaltemperatur mit einer auf konstante Tiefe eingeführten, ein Thermoelement tragenden Sonde. Die Rektaltemperatur der mit verschiedenen erfindungsgemäßen Verbindungen behandelten Tiere wird mit der Temperatur einer Kontrollgruppe verglichen, die destilliertes Wasser auf die gleiche Weise wie die untersuchten Verbindungen erhält.
Die Akinesie (fehlende Bewegungen) und Ptose (Öffnungsgrad des Augenlids von 0 bis 4 nach Rubin u.a 1957) werden ebenfalls alle 30 Minuten über einen Zeitraum von 2 Stunden bewertet.
Die eine antidepressive Aktivität besitzenden Produkte wirken der durch Reserpin induzierten Hypothermie entgegen. Für jede Dosis der verabreichten Verbindung berechnet man die prozentuale Hemmung der Hypothermie.

Apomorphin 16 mg/kg = experiment: Antiapomorphine activity (apomorphine 16 mg/kg s.c., hypothermia); format: in vivo, Maus; details: ip
Procedure: Zur Zeit 0 nach Ausgleich der Reaktaltemperaturen werden die Mäuse (6 pro Gruppe) in deren Beobachtung gestattende Einzelkäfige (11 x 3,5 x 4 cm) eingeetzt. 30 Minuten nach i.p. bzw. p.o. Verabreichung der Testsubstanz erhalten sie Apomorphin subkutan in einer Dosis von 16 mg/kg. Die Rektaltemperatur wird 30 Minuten nach dem Apomorphin gemessen. Die Kontrolltiere erhalten destilliertes Wasser statt der zu untersuchenden Verbindungen. Die bei diesen Kontrolltieren, die 16 mg/kg Apomorphin erhalten haben, beobachtete Hypothermie liegt im Durchschnitt bei 33°C. Für jede Verbindungsdosis berechnet man die prozentuale Hemmung der Hypothermie.

[6] = test system: Apomorphin 1 mg.kg^-1 s.c.; experiment: Apomorphine 1 mg/kg s.c. antagonism (no method given); format: in vivo; details: ip, Tabelle Ib; read-out: Erste wirksame Dosis Apomorphin 1 mg.kg^-1 s.c.
[7] = 8 mg/kg i.p., 30 min before L-5 HTP 4 mg/kg i.p.
[8] = mouse, Tabelle 5a, 16 mg/kg, without Naloxon
[9] = mouse, reaction time, 8 mg/kg i.p., plate 56,6°C
[10] = mouse, reaction time, 16 mg/kg i.p., plate 56,6°C, 16 mg/kg
[11] = mouse, reaction time, 32 mg/kg i.p., plate 56,6°C
[12] = 4 mg/kg i.p., 30 min before L-5 HTP 4 mg/kg i.p.

c1ccc([C@@H]2CCNC[C@H]2c2ccccc2)cc1 (relative stereo) [DPPT, trans-3,4-Diphenylpiperidin]
stimulierender Effekt an der Maus (Motoraktivität; mouse, 16 mg/kg): keinen stimulierenden Effekt | minimal effective dose (Maus [1]; Mus musculus, read-out: bedeutsame Verkürzung der Dauer der Unbeweglichkeit, Dosis): ≥ 2 mg/kg | % Antagonismus (Maus [1]; 1 mg/kg i.p.): 25% | Dauer der Unbeweglichkeit (Maus [1]; 1 mg/kg i.p.): 58 ± 13 Sekunden | % Antagonismus (Maus [1]; 2 mg/kg i.p.): 51% | Dauer der Unbeweglichkeit (Maus [1]; 2 mg/kg i.p.): 38 ± 7 p < 0,01 Sekunden | % Antagonismus (Maus [1]; 4 mg/kg i.p.): 79% | Dauer der Unbeweglichkeit (Maus [1]; 4 mg/kg i.p.): 16 ± 2 p < 0,001 Sekunden | % Antagonismus (Maus [1]; 16 mg/kg i.p.): 84% | Dauer der Unbeweglichkeit (Maus [1]; 16 mg/kg i.p.): 12 ± 3 p < 0,001 Sekunden | minimal effective dose at 16 mg/kg (Maus [2]; ip, Porsolt test, effect stronger at 16 mg/kg, read-out: bedeutsame Abnahme in der Dauer der Unbeweglichkeit, Dosis): ≥ 8 mg/kg | % Antagonismus (Maus [2]; 8 mg/kg i.p.): 28% | Dauer der Unbeweglichkeit (Maus [2]; 8 mg/kg i.p.): 141 ± 16 p < 0,02 Sekunden | % Antagonismus (Maus [2]; 16 mg/kg i.p.): 47% | Dauer der Unbeweglichkeit (Maus [2]; 16 mg/kg i.p.): 94 ± 17 p < 0,001 Sekunden | minimal effective dose (L-5-Hydroxytryptophan; ip, read-out: Zunahme der durch L-5 HTP induzierten ruckartigen Kopfbewegungen, Effekt gesichert bei): 8 mg/kg | Tremor (L-5-Hydroxytryptophan; [7]): 1,3 ± 0,4 | ruckartige Kopfbewegungen (L-5-Hydroxytryptophan; [7]): 4,7 ± 0,6 p < 0,01 | Tremor (L-5-Hydroxytryptophan; L-5 HTP potentiation): verstärkt | minimal effective dose (Maus [3]; Mus musculus, ip, 0.5 h, read-out: Effekt statistisch gesichert bei): 16 mg/kg | Pfotenlecken (Maus [3]; [8]): 10,0 ± 1,5 p < 00,1 Sekunden and 7,9 ± 0,6 p < 0,02 Sekunden | Sprünge (Maus [3]; [8]): 141 ± 12 p < 0,01 Sekunden and 125 ± 14 p < 0,01 Sekunden | schadenverhütender Effekt, Wechselwirkung mit Naloxon (Maus [3]; mouse, hot plate): unterliegt Antagonismus durch Naloxon | Pfotenlecken (Maus [3]; [9]): 7,0 ± 0,9 Sekunden | Sprünge (Maus [3]; [9]): 103 ± 10 Sekunden | Pfotenlecken (Maus [3]; [10]): 8,7 ± 1,2 p < 0,02 Sekunden and 9,9 ± 2,0 Sekunden | Sprünge (Maus [3]; [10]): 154 ± 11 p < 0,001 Sekunden and 135 ± 14 p < 0,05 Sekunden | Pfotenlecken (Maus [3]; [11]): 13,0 ± 1,7 p < 0,01 Sekunden | Sprünge (Maus [3]; [11]): 193 ± 17 p < 0,001 Sekunden

Clc1ccc([C@@H]2CCNC[C@H]2c2ccccc2)cc1Cl [15 (HCl-Salz)]
Aktimetrie (Motoraktivität; mouse, direction of change of motor activity): ↗ | Erste wirksame Dosis Yohimbin (Toxizität des Yohimbins; mouse, i.p., only or lowest value of the cell): 1 mg/kg | minimal effective dose [4]: 0.25 mg/kg | minimal effective dose ([5]; Mus musculus, read-out: Erste wirksame Dosis Reserpin, mouse, i.p., only or lowest value of the cell): 1 mg/kg | minimal effective dose (Apomorphin 16 mg/kg; Mus musculus, read-out: Erste wirksame Dosis Apomorphin 16 mg/kg, mouse, i.p., only or lowest value of the cell): 1 mg/kg

CNCCCN1c2ccccc2CCc2ccccc21 [DESIPRAMIN, reference compound]
Motilität (Motoraktivität; i.p., direction of change, Tabelle Ib): ↘ | minimal effective dose (Motoraktivität; ip, Tabelle Ib, read-out: Erste wirksame Dosis Motilität): 4 mg/kg | minimal effective dose (Maus [1]; Tabelle Ib, read-out: Erste wirksame Dosis T.S.T. Maus): 1 to 4 mg/kg | minimal effective dose (Toxizität des Yohimbins; ip, Tabelle Ib, read-out: Erste wirksame Dosis Yohimbin): 0.5 mg/kg | % Antagonismus (Maus [2]; 8 mg/kg i.p.): 48% | Dauer der Unbeweglichkeit (Maus [2]; 8 mg/kg i.p.): 105 ± 16 p < 0,001 Sekunden | Tremor (L-5-Hydroxytryptophan; [12]): 0,5 ± 0,2 | ruckartige Kopfbewegungen (L-5-Hydroxytryptophan; [12]): 3,8 ± 0,4 p < 0,01 | minimal effective dose ([5]; Tabelle Ib, read-out: Erste wirksame Dosis Reserpin): 0.25 mg/kg | minimal effective dose [6]: > 16 mg/kg | Pfotenlecken (Maus [3]; [9]): 8,2 ± 0,5 p < 0,001 Sekunden | Sprünge (Maus [3]; [9]): 85 ± 7 Sekunden | minimal effective dose (Apomorphin 16 mg/kg; Tabelle Ib, read-out: Erste wirksame Dosis Apomorphin 16 mg.kg^-1 s.c.): 2 mg/kg

Source: patent EP0273199A2, “Uses of 3,4-diphenyl piperidine derivatives or medicines, 3,4-diphenyl piperidine derivatives, and process for their preparation” (LABORATOIRES HOECHST S.A., priority 1986, dated 1988)
